The values that follow come from patent US10654860B2, “Tricyclic rho kinase inhibitors” (BRISTOL-MYERS SQUIBB COMPANY, priority 2016, dated 2020).

Where two headings read alike, the source gives them in different places.

In experiment [1] the test system is IL-1 beta-induced coronary stenosis. The conditions noted are these: long term treatment, porcine model; cited from earlier work.
For a further experiment, the system named is rat stroke model. The note with it: cited from earlier work.
Experiment [2] concerns spontaneously hypertensive rat, renal hypertensive rat and deoxycortisone acetate salt hypertensive rat models. The note with it: cited from earlier work.
The test system of a further experiment is neointimal formation. The note with it: rats, balloon injury model; cited from earlier work.
The subject of experiment [3] is congestive heart failure in Dahl salt-sensitive rats. The conditions noted are these: cited from earlier work.
The next experiment has as its target ROCK2 (Homo sapiens (Human), UniProt O75116). The experiment is described as follows: ROCK2 kinase inhibition assay (LABCHIP peptide phosphorylation). In kind it is biochemical. The note with it: 5 μM ATP, 1.5 μM peptide substrate. As for the experimental part:
The effectiveness of compounds of the present invention as ROCK inhibitors can be determined in a 30 μL, assay containing 20 mM HEPES, pH 7.5, 20 mM MgCl2, 0.015% Brij-35, 4 mM DTT, 5 μM ATP and 1.5 μM peptide substrate (FITC-AHA-AKRRRLSSLRA-OH). Compounds were dissolved in DMSO so that the final concentration of DMSO was <2%, and the reaction was initiated with Rho kinase variants. After incubation, the reaction was terminated by the addition of EDTA and the phosphorylated and non-phosphorylated peptides separated using a LABCHIP® 3000 Reader (Caliper Life Sciences). […] Compounds were tested in dose-response format, and the inhibition of kinase activity was calculated at each concentration of compound. The inhibition data were fit using a curve-fitting program to determine the IC50; i.e., the concentration of compound required to inhibit 50% of kinase activity.
Representative Examples were tested in the ROCK2 assay described above and found having ROCK2 inhibitory activity. The ranges of the ROCK2 IC50 values are as follows: ROCK2 IC50: ++++(<10 nM)+++(10-100 nM)++(100-500 nM)+(500-2000 nM)

Sequence of ROCK2 (O75116 whole entry, species assumed): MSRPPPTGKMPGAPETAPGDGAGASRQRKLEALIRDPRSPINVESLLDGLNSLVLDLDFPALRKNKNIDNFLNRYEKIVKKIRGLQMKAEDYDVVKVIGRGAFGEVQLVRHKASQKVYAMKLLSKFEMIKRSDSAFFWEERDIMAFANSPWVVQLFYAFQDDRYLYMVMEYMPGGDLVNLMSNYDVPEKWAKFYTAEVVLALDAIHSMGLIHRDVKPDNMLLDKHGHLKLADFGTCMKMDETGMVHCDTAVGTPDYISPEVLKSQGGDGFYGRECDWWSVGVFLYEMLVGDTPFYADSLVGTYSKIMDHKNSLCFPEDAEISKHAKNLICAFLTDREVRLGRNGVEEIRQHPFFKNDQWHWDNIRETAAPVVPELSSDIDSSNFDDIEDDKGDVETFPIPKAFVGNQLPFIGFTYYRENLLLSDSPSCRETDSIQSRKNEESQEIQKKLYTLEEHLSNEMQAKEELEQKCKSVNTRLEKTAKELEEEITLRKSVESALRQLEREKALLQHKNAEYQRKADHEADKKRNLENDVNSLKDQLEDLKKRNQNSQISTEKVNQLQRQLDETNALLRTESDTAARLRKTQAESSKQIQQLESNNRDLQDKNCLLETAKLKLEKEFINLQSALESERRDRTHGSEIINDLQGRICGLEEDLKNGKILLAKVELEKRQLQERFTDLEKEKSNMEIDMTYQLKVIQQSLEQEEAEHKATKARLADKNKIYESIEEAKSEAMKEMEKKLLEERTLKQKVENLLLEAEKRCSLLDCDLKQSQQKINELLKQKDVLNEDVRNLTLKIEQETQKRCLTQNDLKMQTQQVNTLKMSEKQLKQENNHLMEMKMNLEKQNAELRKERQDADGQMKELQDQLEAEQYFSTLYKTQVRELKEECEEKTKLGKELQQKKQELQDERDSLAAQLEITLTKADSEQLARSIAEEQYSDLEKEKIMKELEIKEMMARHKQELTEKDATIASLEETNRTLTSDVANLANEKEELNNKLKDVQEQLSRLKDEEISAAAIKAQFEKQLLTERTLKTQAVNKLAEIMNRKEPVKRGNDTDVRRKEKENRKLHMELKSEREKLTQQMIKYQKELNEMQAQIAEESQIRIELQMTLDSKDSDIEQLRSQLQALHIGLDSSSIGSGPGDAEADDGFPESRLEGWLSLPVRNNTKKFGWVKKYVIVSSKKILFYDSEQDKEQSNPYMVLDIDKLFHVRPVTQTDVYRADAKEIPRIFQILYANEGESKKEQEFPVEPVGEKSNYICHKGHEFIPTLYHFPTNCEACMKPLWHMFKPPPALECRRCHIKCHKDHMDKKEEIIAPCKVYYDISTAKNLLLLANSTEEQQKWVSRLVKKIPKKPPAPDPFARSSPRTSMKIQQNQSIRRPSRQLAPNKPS

With `O=S(=O)(c1cccc2cnccc12)N1CCCNCC1` [fasudil], in experiment [1], the coronary constrictive remodeling result is “promote a regression” and the coronary stenosis result is given as “progressively reduce”. In addition, in the experiment with rat stroke model, the infarct size result is on record as “reduce” and the neurologic deficit entry was “reduce”.

In the case of `C[C@@H](N)[C@H]1CC[C@H](C(=O)Nc2ccncc2)CC1` [Example Y-27632, Y-27632], the blood pressure result in experiment [2] (control rats) is recorded as “only a minor effect”; in experiment [2] (three rat models of hypertension), “significantly decrease”. In addition, the neointimal formation entry in the experiment with neointimal formation is recorded as “inhibited”. Moreover, in experiment [3], the “ventricular hypertrophy, fibrosis and function” value is “improve”.

Turning to `COc1cccc(NC2CCN(c3ccc4c(c3)OCc3n[nH]cc3-4)C2=O)c1` (single isomer, unassigned) [Example 17, 1-(2,4-dihydrochromeno[3,4-c]pyrazol-7-yl)-3-((3-methoxyphenyl)amino)pyrrolidin-2-one], the IC50 against ROCK2 is 10 to 100 nM.

As a reminder, the IC50 is the concentration that gives 50% inhibition. A higher IC50 goes with weaker potency in that assay.
